From ChEMBL document CHEMBL1201862, “PubChem BioAssay data set” (2004)
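A five-concentration, 48-hour dose response in 96-well plates underlies each endpoint, interpolated linearly between surrounding concentrations. Here, GI50 denotes the concentration required for 50% inhibition of growth.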 Calls of active or inactive are those of the source. Rule as the data show it: active = GI50 up to about 1.1 µM and inactive = higher.

Legend:
Assay in all cases: DTP human tumour cell line panel, 48 h
[1] = test system: LOX IMVI
[2] = test system: OVCAR-8
[3] = test system: Malme-3M
[4] = test system: COLO 205
[5] = test system: SK-MEL-28
[6] = test system: CAKI-1
[7] = test system: SW-620
[8] = test system: T47D
[9] = test system: SF-539
[10] = test system: MDA-MB-435
[11] = test system: A549
[12] = test system: NCI/ADR-RES
[13] = test system: SK-MEL-2
[14] = test system: HT-29
[15] = test system: K562
[16] = test system: MOLT-4
[17] = test system: SNB-19
[18] = test system: ACHN
[19] = test system: A498
[20] = test system: M14
[21] = test system: DU-145
[22] = test system: UACC-62
[23] = test system: NCI-H23
[24] = test system: MDA-MB-231
[25] = test system: 786-0
[26] = test system: TK-10
[27] = test system: HOP-62
[28] = test system: MCF7
[29] = test system: SF-268
[30] = test system: KM12
[31] = test system: SR
[32] = test system: SK-OV-3
[33] = test system: UO-31
[34] = test system: NCI-H460
[35] = test system: BT-549
[36] = test system: UACC-257
[37] = test system: OVCAR-4
[38] = test system: IGROV-1
[39] = test system: SK-MEL-5
[40] = test system: HCT-15
[41] = test system: HCC 2998
[42] = test system: SF-295
[43] = test system: EKVX
[44] = test system: U-251
[45] = test system: OVCAR-5
[46] = test system: RPMI-8226
[47] = test system: HCT-116
[48] = test system: PC-3
[49] = test system: NCI-H226
[50] = test system: OVCAR-3
[51] = test system: SNB-75
[52] = test system: Hs-578T
[53] = test system: SN12C
[54] = test system: HL-60
[55] = test system: NCI-H522
[56] = test system: CCRF-CEM
[57] = test system: MDA-N
[58] = test system: RXF 393
[59] = test system: HOP-92

With `CC12CCC(C(Nc3cc(C(F)(F)F)cc(C(F)(F)F)c3)C1=O)C2(C)C` (configuration not stated) the GI50 [1] was > 100 µM (inactive), the GI50 [2] was > 100 µM (inactive) and the GI50 [3] was > 100 µM (inactive). The GI50 [4] was > 100 µM (inactive), the GI50 [5] was > 100 µM (inactive) and the GI50 [6] was > 100 µM (inactive). For the same compound, the GI50 [7] was > 100 µM (inactive), the GI50 [8] was > 100 µM (inactive) and the GI50 [9] was > 100 µM (inactive). The GI50 [10] was > 100 µM (inactive), the GI50 [11] was > 100 µM (inactive) and the GI50 [12] was > 100 µM (inactive). The GI50 [13] was > 100 µM (inactive), the GI50 [14] was > 100 µM (inactive) and the GI50 [15] was > 100 µM (inactive). The GI50 [16] was > 100 µM (inactive), the GI50 [17] was > 100 µM (inactive) and the GI50 [18] was > 100 µM (inactive). The GI50 [19] was > 100 µM (inactive), the GI50 [20] was > 100 µM (inactive) and the GI50 [21] was > 100 µM (inactive). The GI50 [22] was > 100 µM (inactive), the GI50 [23] was > 100 µM (inactive) and the GI50 [24] was > 100 µM (inactive). The GI50 [25] was > 100 µM (inactive), the GI50 [26] was > 100 µM (inactive) and the GI50 [27] was > 100 µM (inactive). The GI50 [28] was > 100 µM (inactive), the GI50 [29] was > 100 µM (inactive) and the GI50 [30] was > 100 µM (inactive). For the same compound, the GI50 [31] was > 100 µM (inactive), the GI50 [32] was > 100 µM (inactive) and the GI50 [33] was > 100 µM (inactive). For the same compound, the GI50 [34] was > 100 µM (inactive), the GI50 [35] was > 100 µM (inactive) and the GI50 [36] was > 100 µM (inactive). The GI50 [37] was > 100 µM (inactive), the GI50 [38] was > 100 µM (inactive) and the GI50 [39] was > 100 µM (inactive). For the same compound, the GI50 [40] was > 100 µM, the GI50 [41] was > 100 µM (inactive) and the GI50 [42] was > 100 µM (inactive). The GI50 [43] was > 100 µM (inactive), the GI50 [44] was > 100 µM (inactive) and the GI50 [45] was > 100 µM (inactive). For the same compound, the GI50 [46] was > 100 µM (inactive), the GI50 [47] was > 100 µM (inactive) and the GI50 [48] was > 100 µM (inactive). For the same compound, the GI50 [49] was > 100 µM (inactive) and the GI50 [50] was > 100 µM (inactive).
In the case of `O=CCOCc1cc2c(cc1Br)OCO2`, the GI50 [1] is reported as 19.6 µM (inactive), the GI50 [2] is reported as 20.7 µM (inactive) and the GI50 [51] is reported as 48.9 µM (inactive). For the same compound, the GI50 [4] was > 100 µM (inactive), the GI50 [5] was 37.9 µM (inactive) and the GI50 [6] was 19.9 µM (inactive). The GI50 [7] was 20.9 µM (inactive), the GI50 [8] was 21 µM (inactive) and the GI50 [9] was 25.2 µM (inactive). For the same compound, the GI50 [10] was > 100 µM (inactive), the GI50 [52] was 17.1 µM (inactive) and the GI50 [11] was > 100 µM (inactive). For the same compound, the GI50 [12] was 21 µM (inactive), the GI50 [53] was 34.5 µM (inactive) and the GI50 [14] was 19 µM (inactive). The GI50 [15] was 44.6 µM (inactive), the GI50 [16] was 30.1 µM (inactive) and the GI50 [18] was 23.1 µM (inactive). For the same compound, the GI50 [19] was > 100 µM (inactive), the GI50 [20] was 20.3 µM (inactive) and the GI50 [21] was 28.2 µM (inactive). For the same compound, the GI50 [22] was 43.4 µM (inactive), the GI50 [23] was 11.8 µM (inactive) and the GI50 [24] was 19.7 µM (inactive). The GI50 [25] was 17.3 µM (inactive), the GI50 [54] was 20.9 µM (inactive) and the GI50 [26] was 52.1 µM (inactive). For the same compound, the GI50 [27] was > 100 µM (inactive), the GI50 [28] was 20.3 µM (inactive) and the GI50 [29] was 18.6 µM (inactive). The GI50 [30] was 33 µM (inactive), the GI50 [31] was 24.7 µM (inactive) and the GI50 [32] was > 100 µM (inactive). For the same compound, the GI50 [33] was 21.1 µM (inactive), the GI50 [34] was > 100 µM (inactive) and the GI50 [55] was 15.7 µM (inactive). For the same compound, the GI50 [36] was > 100 µM (inactive), the GI50 [37] was 20.9 µM (inactive) and the GI50 [38] was 32.8 µM (inactive). For the same compound, the GI50 [39] was 19.3 µM (inactive), the GI50 [40] was 21.9 µM and the GI50 [41] was > 100 µM (inactive). The GI50 [56] was 9.93 µM (inactive), the GI50 [42] was > 100 µM (inactive) and the GI50 [57] was 37.2 µM (inactive). For the same compound, the GI50 [43] was > 100 µM (inactive), the GI50 [44] was 31 µM (inactive) and the GI50 [45] was > 100 µM (inactive). The GI50 [46] was 40.6 µM (inactive), the GI50 [47] was 21.6 µM (inactive) and the GI50 [58] was 37 µM (inactive). For the same compound, the GI50 [48] was 21.4 µM (inactive), the GI50 [59] was 43.9 µM (inactive) and the GI50 [50] was 17.3 µM (inactive).
In the case of `NC(CO)Cc1c[nH]cn1` (configuration not stated), the GI50 [6] is reported as > 100 µM (inactive), the GI50 [20] is reported as > 100 µM (inactive) and the GI50 [21] is reported as > 100 µM (inactive). For the same compound, the GI50 [24] was > 100 µM (inactive), the GI50 [55] was > 100 µM (inactive) and the GI50 [35] was > 100 µM (inactive). For the same compound, the GI50 [36] was > 100 µM (inactive), the GI50 [37] was > 10 µM (inactive) and the GI50 [45] was > 100 µM (inactive). The GI50 [58] was > 10 µM (inactive) and the GI50 [59] was > 10 µM (inactive).
For `O=S(=O)([N-]c1nc2ccccc2nc1-[n+]1ccccc1)c1ccccc1`, the GI50 [1] was > 100 µM (inactive), the GI50 [2] was 68.5 µM (inactive) and the GI50 [3] was > 100 µM (inactive). For the same compound, the GI50 [51] was > 100 µM (inactive), the GI50 [4] was > 100 µM (inactive) and the GI50 [6] was > 100 µM (inactive). The GI50 [8] was 81.8 µM (inactive), the GI50 [9] was > 100 µM (inactive) and the GI50 [52] was > 100 µM (inactive). The GI50 [11] was > 100 µM (inactive), the GI50 [12] was > 100 µM (inactive) and the GI50 [53] was > 100 µM (inactive). For the same compound, the GI50 [13] was > 100 µM (inactive), the GI50 [14] was > 100 µM (inactive) and the GI50 [15] was 29.9 µM (inactive). The GI50 [16] was 23.1 µM (inactive), the GI50 [17] was > 100 µM (inactive) and the GI50 [18] was > 100 µM (inactive). For the same compound, the GI50 [20] was > 100 µM (inactive), the GI50 [22] was 93.1 µM (inactive) and the GI50 [23] was 67.8 µM (inactive). For the same compound, the GI50 [24] was 28.9 µM (inactive), the GI50 [25] was > 100 µM (inactive) and the GI50 [54] was 22.1 µM (inactive). For the same compound, the GI50 [26] was 71.4 µM (inactive), the GI50 [27] was 46.1 µM (inactive) and the GI50 [28] was > 100 µM (inactive). The GI50 [29] was > 100 µM (inactive), the GI50 [30] was > 100 µM (inactive) and the GI50 [31] was 14.9 µM (inactive). For the same compound, the GI50 [32] was > 100 µM (inactive), the GI50 [33] was > 100 µM (inactive) and the GI50 [34] was > 100 µM (inactive). For the same compound, the GI50 [55] was > 100 µM (inactive), the GI50 [35] was 20.8 µM (inactive) and the GI50 [36] was > 100 µM (inactive). For the same compound, the GI50 [37] was > 100 µM (inactive), the GI50 [38] was > 100 µM (inactive) and the GI50 [39] was > 100 µM (inactive). For the same compound, the GI50 [40] was > 100 µM, the GI50 [41] was > 100 µM (inactive) and the GI50 [56] was 10.8 µM (inactive). The GI50 [42] was > 100 µM (inactive), the GI50 [43] was > 100 µM (inactive) and the GI50 [45] was > 100 µM (inactive). For the same compound, the GI50 [46] was 74 µM (inactive), the GI50 [47] was > 100 µM (inactive) and the GI50 [58] was > 100 µM (inactive). For the same compound, the GI50 [48] was > 100 µM (inactive), the GI50 [59] was > 100 µM (inactive) and the GI50 [49] was > 100 µM (inactive). The GI50 [50] was > 100 µM (inactive).
